Legend:
[1] = Cytotoxicity against human UACC257 cells assessed as cell growth at 10^-6 M after 48 hrs by SRB assay relative to control; type: functional; conditions: UACC-257, 48 h, read-out: Activity
[2] = Cytotoxicity against human Hs 578T cells assessed as cell growth at 10^-7 M after 48 hrs by SRB assay relative to control; type: functional; conditions: read-out: Activity
SR [3] = assay: Cytotoxicity against human SR cells assessed as cell growth at 10^-4 M after 48 hrs by SRB assay relative to control; type: functional; conditions: read-out: Activity
[4] = Cytotoxicity against human UACC257 cells assessed as cell growth at 10^-4 M after 48 hrs by SRB assay relative to control; type: functional; conditions: UACC-257, 48 h, read-out: Activity
SR [5] = assay: Cytotoxicity against human SR cells assessed as cell growth at 10^-6 M after 48 hrs by SRB assay relative to control; type: functional; conditions: read-out: Activity
K562 = assay: Cytotoxicity against human K562 cells assessed as cell growth at 10^-4 M after 48 hrs by SRB assay relative to control; type: functional; conditions: K562, 48 h, read-out: Activity
SR [6] = assay: Cytotoxicity against human SR cells assessed as cell growth at 10^-8 M after 48 hrs by SRB assay relative to control; type: functional; conditions: read-out: Activity
SR [7] = assay: Cytotoxicity against human SR cells assessed as cell growth at 10^-7 M after 48 hrs by SRB assay relative to control; type: functional; conditions: read-out: Activity
[8] = Cytotoxicity against human PC3 cells assessed as cell growth at 10^-7 M after 48 hrs by SRB assay relative to control; type: functional; conditions: PC-3, 48 h, read-out: Activity
NCI-H522 [9] = assay: Cytotoxicity against human NCI-H522 cells after 48 hrs by SRB assay; type: functional; conditions: NCI-H522, 48 h; for CC50: read-out: LC50 (the source's name)
[10] = Cytotoxicity against human UACC257 cells assessed as cell growth at 10^-7 M after 48 hrs by SRB assay relative to control; type: functional; conditions: UACC-257, 48 h, read-out: Activity
BT-549 [11] = assay: Cytotoxicity against human BT549 cells assessed as cell growth at 10^-8 M after 48 hrs by SRB assay relative to control; type: functional; conditions: BT-549, 48 h, read-out: Activity
BT-549 [12] = assay: Cytotoxicity against human BT549 cells assessed as cell growth at 10^-4 M after 48 hrs by SRB assay relative to control; type: functional; conditions: BT-549, 48 h, read-out: Activity
DU-145 [13] = assay: Cytotoxicity against human DU145 cells assessed as cell growth at 10^-4 M after 48 hrs by SRB assay relative to control; type: functional; conditions: DU-145, 48 h, read-out: Activity
DU-145 [14] = assay: Cytotoxicity against human DU145 cells after 48 hrs by SRB assay; type: functional; conditions: DU-145, 48 h
NCI-H522 [15] = assay: Cytotoxicity against human NCI-H522 cells assessed as cell growth at 10^-8 M after 48 hrs by SRB assay relative to control; type: functional; conditions: NCI-H522, 48 h, read-out: Activity
[16] = Cytotoxicity against human UACC257 cells assessed as cell growth at 10^-8 M after 48 hrs by SRB assay relative to control; type: functional; conditions: UACC-257, 48 h, read-out: Activity
DU-145 [17] = assay: Cytotoxicity against human DU145 cells assessed as cell growth at 10^-8 M after 48 hrs by SRB assay relative to control; type: functional; conditions: DU-145, 48 h, read-out: Activity
BT-549 [18] = assay: Cytotoxicity against human BT549 cells after 48 hrs by SRB assay; type: functional; conditions: BT-549, 48 h; for CC50: read-out: LC50 (the source's name)
BT-549 [19] = assay: Cytotoxicity against human BT549 cells assessed as cell growth at 10^-6 M after 48 hrs by SRB assay relative to control; type: functional; conditions: BT-549, 48 h, read-out: Activity
NCI-H522 [20] = assay: Cytotoxicity against human NCI-H522 cells assessed as cell growth at 10^-6 M after 48 hrs by SRB assay relative to control; type: functional; conditions: NCI-H522, 48 h, read-out: Activity
SR [21] = assay: Cytotoxicity against human SR cells after 48 hrs by SRB assay; type: functional; conditions: for CC50: read-out: LC50 (the source's name)
CCRF-CEM [22] = assay: Cytotoxicity against human CCRF-CEM cells assessed as cell growth at 10^-8 M after 48 hrs by SRB assay relative to control; type: functional; conditions: read-out: Activity
RPMI-8226 [23] = assay: Cytotoxicity against human RPMI8226 cells after 48 hrs by SRB assay; type: functional; conditions: RPMI-8226, 48 h; for CC50: read-out: LC50 (the source's name)
CCRF-CEM [24] = assay: Cytotoxicity against human CCRF-CEM cells assessed as cell growth at 10^-7 M after 48 hrs by SRB assay relative to control; type: functional; conditions: read-out: Activity
RPMI-8226 [25] = assay: Cytotoxicity against human RPMI8226 cells assessed as cell growth at 10^-8 M after 48 hrs by SRB assay relative to control; type: functional; conditions: RPMI-8226, 48 h, read-out: Activity
CCRF-CEM [26] = assay: Cytotoxicity against human CCRF-CEM cells assessed as cell growth at 10^-4 M after 48 hrs by SRB assay relative to control; type: functional; conditions: read-out: Activity
[27] = Cytotoxicity against human UACC257 cells after 48 hrs by SRB assay; type: functional; conditions: UACC-257, 48 h
M14 [28] = assay: Cytotoxicity against human M14 cells assessed as cell growth at 10^-8 M after 48 hrs by SRB assay relative to control; type: functional; conditions: M14, 48 h, read-out: Activity
A549 = assay: Cytotoxicity against human A549 cells assessed as cell growth at 10^-4 M after 48 hrs by SRB assay relative to control; type: functional; conditions: A549, 48 h, read-out: Activity
M14 [29] = assay: Cytotoxicity against human M14 cells assessed as cell growth at 10^-6 M after 48 hrs by SRB assay relative to control; type: functional; conditions: M14, 48 h, read-out: Activity
CCRF-CEM [30] = assay: Cytotoxicity against human CCRF-CEM cells assessed as cell growth at 10^-6 M after 48 hrs by SRB assay relative to control; type: functional; conditions: read-out: Activity
M14 [31] = assay: Cytotoxicity against human M14 cells after 48 hrs by SRB assay; type: functional; conditions: M14, 48 h; for CC50: read-out: LC50 (the source's name)
RPMI-8226 [32] = assay: Cytotoxicity against human RPMI8226 cells assessed as cell growth at 10^-4 M after 48 hrs by SRB assay relative to control; type: functional; conditions: RPMI-8226, 48 h, read-out: Activity
M14 [33] = assay: Cytotoxicity against human M14 cells assessed as cell growth at 10^-7 M after 48 hrs by SRB assay relative to control; type: functional; conditions: M14, 48 h, read-out: Activity
[34] = target: Proto-oncogene tyrosine-protein kinase Src (Homo sapiens, UniProt P12931); assay: Inhibition of Src (unknown origin)
Chain of Proto-oncogene tyrosine-protein kinase Src (P12931 2-536 limits assumed): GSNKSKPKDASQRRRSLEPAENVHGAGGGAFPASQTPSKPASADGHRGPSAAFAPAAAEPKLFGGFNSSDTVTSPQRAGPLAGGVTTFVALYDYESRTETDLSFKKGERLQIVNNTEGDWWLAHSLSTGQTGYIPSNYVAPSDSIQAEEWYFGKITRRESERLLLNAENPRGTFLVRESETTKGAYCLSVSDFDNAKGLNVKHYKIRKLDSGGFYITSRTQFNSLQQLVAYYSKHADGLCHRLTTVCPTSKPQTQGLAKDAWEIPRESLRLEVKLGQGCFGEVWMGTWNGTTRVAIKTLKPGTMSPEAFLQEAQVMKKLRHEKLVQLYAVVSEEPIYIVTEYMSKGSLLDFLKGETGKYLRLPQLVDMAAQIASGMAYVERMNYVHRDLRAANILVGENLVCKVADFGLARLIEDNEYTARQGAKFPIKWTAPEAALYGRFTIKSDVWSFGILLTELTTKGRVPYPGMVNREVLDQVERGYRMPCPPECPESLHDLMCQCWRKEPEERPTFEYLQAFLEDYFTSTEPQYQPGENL

With `CC(C)=CCC[C@H](C)c1ccc(C)c(CNCC2CCNCC2)c1O` as the compound, how does the growth at 1 µM [1] read?
The growth at 1 µM was 80%.

What about the growth at 0.1 µM [2] of the same compound?
Its growth at 0.1 µM is 91%.

What about the growth at 100 µM (SR [3]) of the same compound?
The growth at 100 µM was -50%.

And the growth at 100 µM [4]?
Its growth at 100 µM is -8.3%.

What about the growth at 1 µM (SR [5]) of the same compound?
Its growth at 1 µM is 87%.

And the growth at 100 µM (K562)?
Its growth at 100 µM is -58%.

And the growth at 0.01 µM (SR [6])?
The growth at 0.01 µM was 83%.

And the growth at 0.1 µM (SR [7])?
The growth at 0.1 µM was 84%.

And the growth at 0.1 µM [8]?
The growth at 0.1 µM was 99%.

And the GI50 (NCI-H522 [9])?
Its GI50 is 8.22 µM.

And the TGI (NCI-H522 [9])?
Its TGI is greater than 25 µM.

And the CC50 (NCI-H522 [9])?
The CC50 was greater than 25 µM.

And the growth at 0.1 µM [10]?
The growth at 0.1 µM was 95%.

And the growth at 0.01 µM (BT-549 [11])?
The growth at 0.01 µM was 98%.

And the growth at 100 µM (BT-549 [12])?
Its growth at 100 µM is 22%.

What about the growth at 100 µM (DU-145 [13]) of the same compound?
The growth at 100 µM was 41%.

And the GI50 (DU-145 [14])?
The GI50 was 16.4 µM.

And the LC50 (DU-145 [14])?
Its LC50 is greater than 25 µM.

What about the TGI (DU-145 [14]) of the same compound?
Its TGI is greater than 25 µM.

And the growth at 0.01 µM (NCI-H522 [15])?
Its growth at 0.01 µM is 98%.

And the growth at 0.01 µM [16]?
Its growth at 0.01 µM is 93%.

What about the growth at 0.01 µM (DU-145 [17]) of the same compound?
Its growth at 0.01 µM is 100%.

What about the GI50 (BT-549 [18]) of the same compound?
The GI50 was 9.72 µM.

And the TGI (BT-549 [18])?
The TGI was greater than 25 µM.

And the CC50 (BT-549 [18])?
The CC50 was greater than 25 µM.

And the growth at 1 µM (BT-549 [19])?
The growth at 1 µM was 81%.

And the growth at 1 µM (NCI-H522 [20])?
The growth at 1 µM was 104%.

And the GI50 (SR [21])?
The GI50 was 3.71 µM.

And the TGI (SR [21])?
Its TGI is 9.67 µM.

What about the CC50 (SR [21]) of the same compound?
Its CC50 is greater than 25 µM.

Which results are given for `COc1ccc(CCN2COc3c([C@@H](C)CCC=C(C)C)ccc(C)c3C2)cc1OC`?
growth at 1 µM [1]: 91%; growth at 100 µM [4]: -84%; growth at 0.01 µM (CCRF-CEM [22]): 96%; GI50 (RPMI-8226 [23]): 2.09 µM; TGI (RPMI-8226 [23]): 7.67 µM; CC50 (RPMI-8226 [23]): > 100 µM; growth at 0.1 µM (CCRF-CEM [24]): 98%; growth at 0.01 µM (RPMI-8226 [25]): 93%; growth at 0.1 µM [10]: 91%; growth at 100 µM (CCRF-CEM [26]): -29%; GI50 [27]: 0.0283 µM; TGI [27]: 10.9 µM; CC50 ([27]; read-out: LC50 (the source's name)): 40.8 µM; growth at 0.01 µM [16]: 80%; growth at 0.01 µM (M14 [28]): 95%; growth at 100 µM (A549): -52%; growth at 1 µM (M14 [29]): 92%; growth at 1 µM (CCRF-CEM [30]): 93%; GI50 (M14 [31]): 1.69 µM; TGI (M14 [31]): 3.18 µM; CC50 (M14 [31]): 5.97 µM; growth at 100 µM (RPMI-8226 [32]): -28%; growth at 0.1 µM (M14 [33]): 97%

With `CC(C)=CCC[C@H](C)c1ccc(C)cc1O` as the compound, how does the IC50 [34] read?
Its IC50 is 35.8 µM.

Which results are given for `CC(C)=CCC[C@H](C)c1ccc(C)c2c1OCN(CC1CCNCC1)C2`?
growth at 0.1 µM [2]: 102%; growth at 100 µM (SR [3]): -42%; growth at 1 µM (SR [5]): 91%; growth at 100 µM (K562): -50%; growth at 0.01 µM (SR [6]): 95%; GI50 (RPMI-8226 [23]): 7.25 µM; TGI (RPMI-8226 [23]): 32.6 µM; CC50 (RPMI-8226 [23]): > 100 µM; growth at 0.1 µM (SR [7]): 98%; growth at 0.1 µM [8]: 100%; GI50 (NCI-H522 [9]): 13.5 µM; TGI (NCI-H522 [9]): 28.6 µM; CC50 (NCI-H522 [9]): 60.4 µM; growth at 0.01 µM (RPMI-8226 [25]): 99%; growth at 0.01 µM (BT-549 [11]): 94%; growth at 100 µM (BT-549 [12]): -49%; growth at 100 µM (DU-145 [13]): -94%; GI50 (DU-145 [14]): 16.4 µM; LC50 (DU-145 [14]): 63.2 µM; TGI (DU-145 [14]): 32.2 µM; growth at 0.01 µM (NCI-H522 [15]): 87%; growth at 0.01 µM (DU-145 [17]): 104%; GI50 (BT-549 [18]): 16.9 µM; TGI (BT-549 [18]): 41.6 µM; CC50 (BT-549 [18]): > 100 µM; growth at 0.01 µM (M14 [28]): 96%; growth at 100 µM (A549): -84%; growth at 1 µM (M14 [29]): 114%; growth at 1 µM (BT-549 [19]): 104%; growth at 1 µM (NCI-H522 [20]): 97%; GI50 (SR [21]): 2.79 µM; TGI (SR [21]): 9.83 µM; CC50 (SR [21]): > 100 µM; GI50 (M14 [31]): 10.2 µM; TGI (M14 [31]): 24.5 µM; CC50 (M14 [31]): 58.9 µM; growth at 100 µM (RPMI-8226 [32]): -38%; growth at 0.1 µM (M14 [33]): 99%

Source: ChEMBL document CHEMBL3390836, “Mannich- and LedererManasse-based analogues of the natural product S-(+)-curcuphenol as cancer proliferation and migration inhibitors” (Medchemcomm, 2012)
